Assay results published in paper PMC4279175, “Mechanisms Underlying the Antinociceptive, Antiedematogenic, and Anti-Inflammatory Activity of the Main Flavonoid from Kalanchoe pinnata” (Evidence-based Complementary and Alternative Medicine : eCAM, 2014).
pIC50: −log10 of the molar value.

Tests used:
COX-2 = target: T1, COX-2 (Ovis aries, UniProt P79208); test: colorimetric COX (ovine) inhibitor screening assay kit (Cayman […]); […] maximum inhibition at […]; format: biochemical
T1 construct: gene PTGS2
T1 sequence (P79208 17-603): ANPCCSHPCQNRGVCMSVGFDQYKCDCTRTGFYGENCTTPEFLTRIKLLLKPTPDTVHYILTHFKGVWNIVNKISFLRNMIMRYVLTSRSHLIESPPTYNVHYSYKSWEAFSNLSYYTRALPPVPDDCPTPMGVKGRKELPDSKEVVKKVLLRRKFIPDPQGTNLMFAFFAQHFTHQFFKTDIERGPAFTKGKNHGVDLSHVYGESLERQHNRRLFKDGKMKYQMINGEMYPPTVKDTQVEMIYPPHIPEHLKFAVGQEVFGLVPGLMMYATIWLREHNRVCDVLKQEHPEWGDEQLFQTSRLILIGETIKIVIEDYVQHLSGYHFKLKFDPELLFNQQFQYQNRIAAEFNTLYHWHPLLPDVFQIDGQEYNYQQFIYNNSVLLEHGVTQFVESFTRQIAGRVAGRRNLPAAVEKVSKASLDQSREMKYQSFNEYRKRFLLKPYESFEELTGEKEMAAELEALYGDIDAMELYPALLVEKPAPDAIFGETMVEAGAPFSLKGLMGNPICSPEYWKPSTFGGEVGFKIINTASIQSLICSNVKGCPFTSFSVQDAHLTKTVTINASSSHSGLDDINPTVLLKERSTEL

COX-1 = target: T2, COX-1 (Ovis aries, UniProt P05979); test: colorimetric COX (ovine) inhibitor screening assay kit (Cayman […]); format: biochemical
T2 construct: gene PTGS1
T2 sequence (P05979 25-600): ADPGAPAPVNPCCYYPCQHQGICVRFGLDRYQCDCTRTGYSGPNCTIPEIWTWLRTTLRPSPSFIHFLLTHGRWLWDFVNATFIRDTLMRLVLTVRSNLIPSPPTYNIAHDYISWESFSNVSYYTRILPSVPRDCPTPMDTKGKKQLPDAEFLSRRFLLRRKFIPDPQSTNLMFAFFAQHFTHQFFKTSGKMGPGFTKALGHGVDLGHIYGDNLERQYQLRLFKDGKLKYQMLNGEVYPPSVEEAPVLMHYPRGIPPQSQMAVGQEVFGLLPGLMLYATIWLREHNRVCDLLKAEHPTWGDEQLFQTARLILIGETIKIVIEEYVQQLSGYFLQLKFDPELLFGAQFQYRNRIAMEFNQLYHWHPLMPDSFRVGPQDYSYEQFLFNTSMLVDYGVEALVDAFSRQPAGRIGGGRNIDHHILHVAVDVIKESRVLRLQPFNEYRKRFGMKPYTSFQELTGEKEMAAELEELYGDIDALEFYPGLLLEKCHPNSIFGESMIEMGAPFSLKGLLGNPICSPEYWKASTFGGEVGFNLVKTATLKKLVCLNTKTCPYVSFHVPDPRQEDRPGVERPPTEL

pIC50 (COX-2): < 4.08
pIC50 (COX-1): 4.42
Compound: C[C@@H]1O[C@@H](Oc2c(-c3ccc(O)c(O)c3)oc3cc(O)cc(O)c3c2=O)[C@H](O[C@@H]2OC[C@H](O)[C@H](O)[C@H]2O)[C@H](O)[C@H]1O [KPFV, quercetin 3-O-α-L-arabinopyranosyl (1 → 2) α-L-rhamnopyranoside]
